Laboratory results as given in PubChem BioAssay AID1259411 (Chemical Carcinogenesis Research Information System (CCRIS), 2018).
The source made the active and inactive calls. No rule for the calls is given here.

Test system: rodent carcinogenicity bioassays, tumor incidence
Experiment: CCRIS carcinogenicity studies
How it was run: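 Archive of carcinogenicity, mutagenicity, tumor promotion and tumor inhibition results drawn from journals, NCI reports and other sources, expert-reviewed; covers 1985-2011 and is no longer updated.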

Measured: carcinogen call

O=CNc1nc(-c2ccc([N+](=O)[O-])o2)cs1
active: Species: DOG, Route: ORAL, Tumor Site: Type of Lesion: URINARY BLADDER, GALL BLADDER active; positive | Species: MOUSE, Route: ORAL, Tumor Site: Type of Lesion: URINARY BLADDER active; positive | Species: MOUSE, Strain/Sex: CD-1/FEMALE, Route: ORAL, Dose: 0, 0.1% IN DIET FOR 36 WK (STUDY DURATION: 81 WK), Tumor Site: Type of Lesion: BLADDER: TRANSITIONAL CELL CARCINOMA, SPINDLE CELL TUMOR, SQUAMOUS CELL CARCINOMA active; positive | Species: MOUSE, Strain/Sex: CD-1/MALE, Route: ORAL, Dose: 0, 0.1% IN DIET FOR 40 WK (STUDY DURATION: 70 WK), Tumor Site: Type of Lesion: BLADDER: TRANSITIONAL CELL CARCINOMA, SPINDLE CELL TUMOR, SQUAMOUS CELL CARCINOMA active; positive | Species: RAT, Route: ORAL, Tumor Site: Type of Lesion: KIDNEY, MAMMARY GLAND active; positive | Species: RAT, Strain/Sex: F344/MALE, Route: ORAL, Dose: 0.001-0.2% IN DIET FOR 30 WK, Tumor Site: Type of Lesion: URINARY BLADDER: CARCINOMA active; positive | Species: RAT, Strain/Sex: SPRAGUE-DAWLEY/FEMALE, Route: ORAL, Dose: 0, 0.188% IN DIET FOR 20 WK FOLLOWED BY CONTROL DIET FOR 20 WK (STUDY DURATION: 40 WK), Tumor Site: Type of Lesion: BLADDER: TRANSITIONAL CELL CARCINOMA active; positive | Species: RAT, Strain/Sex: SPRAGUE-DAWLEY/FEMALE, Route: ORAL, Dose: 0.188% IN DIET FOR 20 WK THEN BASAL DIET FOR 20 WK, Tumor Site: Type of Lesion: URINARY BLADDER: TRANSITIONAL CELL CARCINOMA active; positive

CC(=O)N(O)c1ccc(-c2ccccc2)cc1
inactive: Species: RAT, Strain/Sex: STRAIN-CD/FEMALE, Route: INTRAPERITONEAL, Dose: 0, 100 UMOL/KG BW 2/WK FOR 6 WK (STUDY DURATION: 62 WK) inactive; negative

Nc1ccc(-c2ccccc2)cc1
active: Species: DOG, Route: ORAL, Tumor Site: Type of Lesion: URINARY BLADDER active; positive | Species: HUMAN, Route: ORAL, INHALATION, DERMAL, Tumor Site: Type of Lesion: URINARY BLADDER active; positive | Species: MOUSE, Route: ORAL, Tumor Site: Type of Lesion: URINARY BLADDER, LIVER active; positive | Species: MOUSE, Route: SUBCUTANEOUS, Tumor Site: Type of Lesion: LIVER active; positive | Species: MOUSE, Strain/Sex: B6C3F1/MALE, Route: INTRAPERITONEAL, Dose: 0, 0.625 UMOL IN 35 µL DMSO ON D 1, 8, AND 15 AFTER BIRTH (STUDY DURATION: 8 MO), Tumor Site: Type of Lesion: LIVER: HEPATOCELLULAR ADENOMA active; positive | Species: MOUSE, Strain/Sex: B6C3F1/MALE, Route: INTRAPERITONEAL, Dose: 0, 0.625 UMOL IN 35 µL DMSO ON D 1, 8, AND 15 AFTER BIRTH (STUDY DURATION: 12 MO), Tumor Site: Type of Lesion: LIVER: HEPATOCELLULAR ADENOMA, HEPATOCELLULAR CARCINOMA active; positive | Species: MOUSE, Strain/Sex: B6C3F1/MALE, Route: INTRAPERITONEAL, Dose: 0, 1.25 UMOL IN 35 µL DMSO ON D 1, 8, AND 15 AFTER BIRTH (STUDY DURATION: 8 MO), Tumor Site: Type of Lesion: LIVER: HEPATOCELLULAR ADENOMA active; positive | Species: MOUSE, Strain/Sex: B6C3F1/MALE, Route: INTRAPERITONEAL, Dose: 0, 1.25 UMOL IN 35 µL DMSO ON D 1, 8, AND 15 AFTER BIRTH (STUDY DURATION: 12 MO), Tumor Site: Type of Lesion: LIVER: HEPATOCELLULAR ADENOMA, HEPATOCELLULAR CARCINOMA active; positive | Species: MOUSE, Strain/Sex: BALB/CSTCRLFC3HF/NCTR/FEMALE, Route: ORAL, Dose: 0, 7, 19, 38, 75, 150, 300 PPM IN DRINKING WATER FOR 96 WK (STUDY DURATION: 96 WK), Dose: 0, 7, 19, 38, 75, 150, 300 PPM IN DRINKING WATER FOR 96 WK (STUDY DURATION: 96 WK), Tumor Site: Type of Lesion: BLOOD VESSELS: ANGIOSARCOMA, LIVER: HEPATOCELLULAR CARCINOMA active; positive | Species: MOUSE, Strain/Sex: BALB/CSTCRLFC3HF/NCTR/MALE, Route: ORAL, Dose: 0, 7, 14, 28, 55, 110, 220 PPM IN DRINKING WATER FOR 96 WK (STUDY DURATION: 96 WK), Dose: 0, 7, 14, 28, 55, 110, 220 PPM IN DRINKING WATER FOR 96 WK (STUDY DURATION: 96 WK), Tumor Site: Type of Lesion: BLOOD VESSELS: ANGIOSARCOMA, BLADDER: CARCINOMA active; positive | Species: RABBIT, Route: ORAL, Tumor Site: Type of Lesion: URINARY BLADDER active; positive | Species: RAT, Route: SUBCUTANEOUS, Tumor Site: Type of Lesion: MAMMARY GLAND, INTESTINES active; positive

[O-]/[N+](=N\O)c1ccccc1
active: Species: MOUSE, Strain/Sex: B6C3F1/FEMALE, Route: ORAL, Dose: 0, 0.2, 0.4% TWA, IN DIET FOR 78 WK (STUDY DURATION: 95-98 WK), Dose: 0, 0.2, 0.4% TWA, IN DIET FOR 78 WK (STUDY DURATION: 95-98 WK), Tumor Site: Type of Lesion: CIRCULATORY SYSTEM: HEMANGIOSARCOMA OR HEMANGIOMA, LIVER: HEPATOCELLULAR CARCINOMA, HEPATOCELLULAR ADENOMA OR CARCINOMA;, Tumor Site: Type of Lesion: CIRCULATORY SYSTEM: HEMANGIOSARCOMA OR HEMANGIOMA, LIVER: HEPATOCELLULAR CARCINOMA, HEPATOCELLULAR ADENOMA OR CARCINOMA active; positive | Species: MOUSE, Strain/Sex: B6C3F1/MALE, Route: ORAL, Dose: 0, 0.2, 0.4% TWA, IN DIET FOR 78 WK (STUDY DURATION: 95-98 WK), Dose: 0, 0.2, 0.4% TWA, IN DIET FOR 78 WK (STUDY DURATION: 95-98 WK), Tumor Site: Type of Lesion: CIRCULATORY SYSTEM: HEMANGIOSARCOMA active; positive | Species: RAT, Strain/Sex: F344/FEMALE, Route: ORAL, Dose: 0, 0.15, 0.30% IN DIET FOR 78 WK (STUDY DURATION: 106-110 WK), Dose: 0, 0.15, 0.30% IN DIET FOR 78 WK (STUDY DURATION: 106-110 WK), Tumor Site: Type of Lesion: CIRCULATORY SYSTEM: HEMANGIOSARCOMA, LIVER: HEPATOCELLULAR CARCINOMA, HEPATOCELLULAR CARCINOMA OR NEOPLASTIC NODULE, STO, Tumor Site: Type of Lesion: CIRCULATORY SYSTEM: HEMANGIOSARCOMA, LIVER: HEPATOCELLULAR CARCINOMA, HEPATOCELLULAR CARCINOMA OR NEOPLASTIC NODULE, STO active; positive | Species: RAT, Strain/Sex: F344/MALE, Route: ORAL, Dose: 0, 0.15, 0.30% IN DIET FOR 78 WK (STUDY DURATION: 97-110 WK), Dose: 0, 0.15, 0.30% IN DIET FOR 78 WK (STUDY DURATION: 97-110 WK), Tumor Site: Type of Lesion: CIRCULATORY SYSTEM: HEMANGIOSARCOMA, LIVER: HEPATOCELLULAR CARCINOMA OR NEOPLASTIC NODULE, STOMACH: SQUAMOUS CELL CARCIN, Tumor Site: Type of Lesion: CIRCULATORY SYSTEM: HEMANGIOSARCOMA, LIVER: HEPATOCELLULAR CARCINOMA OR NEOPLASTIC NODULE, STOMACH: SQUAMOUS CELL CARCIN active; positive

O=[N+]([O-])c1c(Cl)c(Cl)c(Cl)c(Cl)c1Cl
active: Species: MOUSE, Route: DERMAL, Tumor Site: Type of Lesion: INTEGUMENTARY SYSTEM (SKIN) active; positive | Species: MOUSE, Route: ORAL, Tumor Site: Type of Lesion: LIVER active; positive
inactive: Species: MOUSE, Strain/Sex: B6C3F1/FEMALE, Route: ORAL, Dose: 0, 4093, 8187 PPM IN DIET, TWA, Dose: 0, 4093, 8187 PPM IN DIET, TWA inactive; negative | Species: MOUSE, Strain/Sex: B6C3F1/MALE, Route: ORAL, Dose: 0, 2500, 5000 PPM IN DIET FOR 103 WK (STUDY DURATION = 104 WK), Dose: 0, 2500, 5000 PPM IN DIET FOR 103 WK (STUDY DURATION = 104 WK) inactive; negative | Species: MOUSE, Strain/Sex: B6C3F1/MALE, Route: ORAL, Dose: 0, 2606, 5213 PPM IN DIET, TWA, Dose: 0, 2606, 5213 PPM IN DIET, TWA inactive; negative | Species: RAT, Strain/Sex: OSBORNE-MENDEL/FEMALE, Route: ORAL, Dose: 0, 7875, 14635 PPM IN DIET, TWA, Dose: 0, 7875, 14635 PPM IN DIET, TWA inactive; negative | Species: RAT, Strain/Sex: OSBORNE-MENDEL/MALE, Route: ORAL, Dose: 0, 5417, 10064 PPM IN DIET, TWA, Dose: 0, 5417, 10064 PPM IN DIET, TWA inactive; negative
